Read-outs that look alike come from different tables or passages of the source.
Tests used:
[1] = target: T1, monoamine oxidase A (MAO-A) (Homo sapiens, UniProt P21397); assay: Amine oxidase activity assay (MAO-Glo), MAO-A; type: biochemical
T1 construct: purchased Promega V1452
T1 sequence (P21397 1-527): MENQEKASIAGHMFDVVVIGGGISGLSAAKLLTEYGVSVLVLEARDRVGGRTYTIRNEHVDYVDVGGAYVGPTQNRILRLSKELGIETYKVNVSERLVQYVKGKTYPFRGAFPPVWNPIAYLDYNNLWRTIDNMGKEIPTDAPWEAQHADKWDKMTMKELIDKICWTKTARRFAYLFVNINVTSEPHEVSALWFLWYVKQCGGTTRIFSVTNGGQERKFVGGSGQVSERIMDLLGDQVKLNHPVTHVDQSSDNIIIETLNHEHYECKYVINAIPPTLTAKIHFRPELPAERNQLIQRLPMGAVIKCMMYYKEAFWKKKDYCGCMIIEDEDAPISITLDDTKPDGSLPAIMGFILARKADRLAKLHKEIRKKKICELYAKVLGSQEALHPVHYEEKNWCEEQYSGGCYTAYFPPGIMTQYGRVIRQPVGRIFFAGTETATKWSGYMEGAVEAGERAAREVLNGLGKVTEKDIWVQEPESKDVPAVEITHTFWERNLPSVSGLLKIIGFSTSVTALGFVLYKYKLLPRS
Description: The Promega MAO-Glo assay kit (V1402) was used to assess monoamine oxidase A (MAO-A) and monoamine oxidase B (MAO-B) activity. MAO substrate was prepared at 80 μM with the specific MAO-A/B reaction buffer. Overall, 0.5 μl test compound was added to 25 μl MAO substrate at 100, 30, 10, 3, 1, 0.3, 0.1, 0.03, 0.01 and 0.003 μM (final concentration) in a 96-well white, flat bottom plate. Overall, 25 μl of 1:520 dilution of MAO-A enzyme (Promega, V1452) or 25 μl of 1:52 dilution of MAO-B enzyme (Sigma, M7441) in specific MAO-A/B reaction buffer was added to each well (enzyme prepared at 2×final concentration) and plates were incubated for 1 h at room temperature. Finally, 50 μl per well luciferin detection reagent was added and plates were incubated for 20 min at room temperature, protected from light. Luminescence was measured with an integration time of 500 ms per well using a SpectaMax M5 plate reader and resulting IC50 values were calculated using GraphPad Prism software.
In another setting, the DAO and MAO assays were performed in 384-well plates (Greiner) and test compound was added using a Labcyte Echo™ Acoustic Handler for the same final concentrations as in the 96-well setting. Luminescence was measured with BMG LABTECH PHERAstar FS plate reader.

[2] = target: T2, LOXL2 (Homo sapiens, UniProt Q9Y4K0); assay: LOX isoform activity assay (ROS Glo), LOXL2; type: biochemical
T2 construct: purchased R&D Systems/Bio-techne
T2 sequence (Q9Y4K0 26-774): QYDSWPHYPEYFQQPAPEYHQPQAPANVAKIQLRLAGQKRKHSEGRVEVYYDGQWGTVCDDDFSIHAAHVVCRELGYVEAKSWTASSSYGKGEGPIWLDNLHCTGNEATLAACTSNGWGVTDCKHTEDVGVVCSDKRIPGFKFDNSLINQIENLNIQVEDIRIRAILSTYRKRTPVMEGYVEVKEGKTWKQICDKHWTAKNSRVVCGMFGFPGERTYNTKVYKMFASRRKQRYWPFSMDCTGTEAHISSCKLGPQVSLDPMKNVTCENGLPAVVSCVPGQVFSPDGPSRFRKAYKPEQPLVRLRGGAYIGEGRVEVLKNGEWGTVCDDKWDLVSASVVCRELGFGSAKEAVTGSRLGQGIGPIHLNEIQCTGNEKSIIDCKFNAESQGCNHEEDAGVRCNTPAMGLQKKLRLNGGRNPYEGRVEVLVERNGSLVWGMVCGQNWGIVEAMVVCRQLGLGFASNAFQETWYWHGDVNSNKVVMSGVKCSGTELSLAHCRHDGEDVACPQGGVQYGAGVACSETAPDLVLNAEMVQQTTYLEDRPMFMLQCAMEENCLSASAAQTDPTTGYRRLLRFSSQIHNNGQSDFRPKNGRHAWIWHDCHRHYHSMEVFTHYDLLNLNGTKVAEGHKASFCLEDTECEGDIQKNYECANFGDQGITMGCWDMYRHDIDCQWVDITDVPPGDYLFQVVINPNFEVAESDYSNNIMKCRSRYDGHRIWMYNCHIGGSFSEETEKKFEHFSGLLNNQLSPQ
In short: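 Human LOXL2 in 100 mM CHES pH 9 (1 M urea, 100 mM NaCl, 1 mM MgCl2, 0.5% BSA, 0.05% pluronic F-127) preincubated with compound (0.003–100 μM final) for 20 min, 1 h or 20 h. Cadaverine 19.56 mM and H2O2 25 μM added, 1 h at RT. Luminescence (ROS-Glo luciferin detection) fitted to IC50.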

[3] = 20 hr incubation with enzyme; read-out: LOXL2 IC50 c) 20 hr
[4] = 1 hr incubation with enzyme; read-out: LOXL2 IC50 b) 1 hr

Row | Structure (SMILES) | IC50 [1] [µM] | IC50 ([2]; 20 min incubation with enzyme; read-out: LOXL2 IC50 a) 20 min) [µM] | IC50 [2, 4] [µM] | IC50 [2, 3] [µM]
1 | CCOc1ccc(N2C[C@H]3CN(CCS(=O)(=O)CCN)C[C@@H]2C(C)(C)C3)cc1 [Example 1, 2-((2-((1R,5S)-6-(4-ethoxyphenyl)-9,9-dimethyl-3,6-diazabicyclo[3.2.2]nonan-3-yl)ethyl)sulfonyl)ethan-1-amine] | > 100 | – | – | 1.6
2 | CCOc1ccc(N2C[C@@H]3C[C@H]2CN3CCS(=O)(=O)CCN)cc1 [Example 2, 2-((2-((1S,4S)-5-(4-ethoxyphenyl)-2,5-diazabicyclo[2.2.1]heptan-2-yl)ethyl)sulfonyl)-ethan-1-amine] | > 100 | – | – | 0.4
3 | CCOc1ccc(N2C[C@H]3CN(C(=O)CS(=O)(=O)CCN)C[C@@H]2C(C)(C)C3)cc1 [Example 7, 2-((2-aminoethyl)sulfonyl)-1-((1S,5S)-6-(4-ethoxyphenyl)-9,9-dimethyl-3,6-diazabicyclo[3.2.2]nonan-3-yl)ethan-1-one] | > 100 | – | – | 0.27
4 | CCOc1ccc(N2C[C@@H]3C[C@H]2CN3C(=O)CS(=O)(=O)CCN)cc1 [Example 8, 2-((2-aminoethyl)-sulfonyl)-1-((1S,4S)-5-(4-ethoxyphenyl)-2,5-diazabicyclo-[2.2.1]heptan-2-yl)-ethan-1-one] | > 100 | – | – | 0.15
5 | CCOc1ccc(N2C[C@H]3CN(c4ccc(S(=O)(=O)CCN)cc4)C[C@@H]2C(C)(C)C3)cc1 [Example 33, 2-((4-((1R,5S)-6-(4-ethoxyphenyl)-9,9-dimethyl-3,6-diazabicyclo [3.2.2]nonan-3-yl)phenyl)sulfonyl)ethan-1-amine] | > 100 | – | – | 16
6 | CCOc1ccc(N2C[C@H]3CN(C(=O)NCCS(=O)(=O)CCN)C[C@@H]2C(C)(C)C3)cc1 [Example 38, (1S,5S)—N-(2-((2-aminoethyl)sulfonyl)ethyl)-6-(4-ethoxyphenyl)-9,9-dimethyl-3,6-diazabicyclo[3.2.2]nonane-3-carboxamide] | – | – | 0.58 | –
7 | CCOC(=O)CCC(C(=O)N1C[C@@H]2C[C@H]1CN2c1ccc(OCC)cc1)S(=O)(=O)CCN (stereo partly drawn) [Example 41, ethyl 4-((2-aminoethyl)sulfonyl)-5-((1S,4S)-5-(4-ethoxyphenyl)-2,5-diazabicyclo[2.2.1]heptan-2-yl)-5-oxopentanoate] | > 100 | – | 3.1 | –

Further lines, with some results ahead:

Row | IC50 [1] [µM] | IC50 ([2]; 20 min incubation with enzyme; read-out: LOXL2 IC50 a) 20 min) [µM] | IC50 [2, 4] [µM] | Structure (SMILES) | IC50 [2, 3] [µM]
8 | > 100 | 7.3 | – | CCOc1ccc(N2CC3CN(CCS(=O)(=O)CCN)CC3C2)cc1 (centres unmarked) [Example 4, 2-((2-(5-(4-ethoxyphenyl)hexahydropyrolo [3,4-c]pyrrol-2(1H)-yl)ethyl)sulfonyl)ethan-1-amine] | –
9 | > 100 | – | 0.17 | Cc1ccc(S(=O)(=O)N2C[C@H]3CN(C(=O)CS(=O)(=O)CCN)C[C@H]3C2)cc1 [Example 11, 2-((2-aminoethyl)-sulfonyl)-1-(cis-5-tosylhexahydro-pyrrolo[3,4-c]pyrrol-2(1H)-yl)ethan-1-one] | –
10 | > 100 | – | 0.43 | NCCS(=O)(=O)CC(=O)N1CCN(c2ncccn2)CC1 [Example 12, 2-((2-Aminoethyl)-sulfonyl)-1-(4-(pyrimidin-2-yl)-piperazin-1-yl)ethan-1-one] | –
11 | > 100 | – | 0.4 | NCCS(=O)(=O)CC(=O)N1CCN(c2ccccc2)CC1 [Example 13, 2-((2-Aminoethyl)-sulfonyl)-1-(4-phenylpiperazin-1-yl)ethan-1-one] | –
12 | > 100 | – | 11 | CCOc1ccc(N2C[C@@H]3C[C@H]2CN3C(=O)C2(S(=O)(=O)CCN)CC2)cc1 [Example 42, (1-((2-Aminoethyl)sulfonyl)cyclopropyl)((1S,4S)-5-(4-ethoxyphenyl)-2,5-diazabicyclo[2.2.1]heptan-2-yl)methanone] | –
